Assay results published in article PMC2939254 (Neuroscience, 2010).
Where two headings read alike, the source gives them in different places.

How the values were obtained:
[1] = system: NR1b/NR2A NMDAR expressed in HEK293 cells; type: cell-based, rat; conditions: pH 7.35
[2] = system: NR1a/NR2A NMDAR expressed in HEK293 cells; type: cell-based, rat; conditions: pH 7.35
[3] = system: NR1a/NR2B NMDAR expressed in HEK293 cells; type: cell-based, rat; conditions: pH 7.35
[4] = system: NR1b/NR2B NMDAR expressed in HEK293 cells; type: cell-based, rat; conditions: pH 7.35
NR2B-containing NMDAR = type: cell-based, rat
[5] = system: NR2A-containing NMDAR complexes; type: cell-based, rat
[6] = system: NR1a/NR2A NMDAR expressed in HEK293 cells; conditions: cited from earlier work
[7] = system: NR1b/NR2A NMDAR expressed in HEK293 cells; conditions: cited from earlier work
[8] = system: NR1b/NR2B NMDAR expressed in HEK293 cells; conditions: cited from earlier work
[9] = system: NR1a/NR2B NMDAR expressed in HEK293 cells; conditions: cited from earlier work

Substance | % maximal inhibition, 1b/2A [1] [%] | % maximal inhibition, 1a/2A [2] [%] | % maximal inhibition, 1a/2B [3] [%] | % maximal inhibition, 1b/2B [4] [%] | maximal inhibition of NR2B-containing NMDAR (NR2B-containing NMDAR) [%] | inhibition of NR2A-containing NMDAR complexes [5] | % maximal inhibition, 1a/2A [6] [%] | % maximal inhibition, 1b/2A [7] [%] | % maximal inhibition, 1b/2B [8] [%] | % maximal inhibition, 1a/2B [9] [%]
GEγγLAKNA AγLARγNI(NH2) [con-R′ [V5L/ΔA10]] | 0 | 0 | 69 ± 4 | 71 ± 3 | – | – | – | – | – | –
GEγγLQANQγLIRγKSN(NH2) [con-G[γ7A]] | 0 | 0 | 90 ± 4 | 95 ± 3 | – | – | – | – | – | –
GEγγLQKMLγNLRγAEVKKNA(NH2) [con-T[Y5L]] | 86 ± 7 | 80 ± 6 | 85 ± 3 | 90 ± 6 | – | – | – | – | – | –
GEγγLQKNQγLIRγKSN(NH2) [con-G[γ7K]] | 0 | 0 | 82 ± 5 | 94 ±2 | – | – | – | – | – | –
GEγγLQγNQγNLRγAEVKKNA(NH2) [con-G/T] | 0 | 0 | 80 ± 5 | 86 ± 4 | > 80 | no inhibition | – | – | – | –
GEγγVAAMAAγLARγNI(NH2) [con-R′ [K7A]] | 93 ± 4 | 93 ± 3 | 91 ± 3 | 95 ± 2 | – | – | – | – | – | –
GEγγVAKAAAγLARγNI(NH2) [con-R′ [M8A]] | 0 | 0 | 85 ± 3 | 88 ± 4 | – | – | – | – | – | –
GEγγVAKMA AγLARγNI(NH2) [con-R′ [ΔA10]] | 0 | 0 | 55 ± 6 | 65 ± 5 | – | – | – | – | – | –
GEγγVAKNAAγLARγNI(NH2) [con-R′ [M8N]] | 60 ± 7 | 45 ± 6 | 53 ± 5 | 66 ± 5 | – | – | – | – | – | –
GEγγVQKMAAγLARγNI(NH2) [con-R′ [A6Q]] | 72 ± 6 | 50 ± 7 | 84 ± 5 | 90 ± 4 | – | – | – | – | – | –
GEγγVQKMQAγLARγNI(NH2) [con-R′ [A6Q/A9Q]] | 25 ± 5 | 0 | 70 ± 6 | 79 ± 5 | – | – | – | – | – | –
GEγγYAKNA AγLARγNI(NH2) [con-R′ [V5Y/ΔA10]] | 84 ± 4 | 82 ± 6 | 87 ± 5 | 90 ± 3 | – | – | – | – | – | –
GEγγYQAMLγNLRγAEVKKNA(NH2) [con-T[K7A]] | 91 ± 3 | 93 ± 2 | 85 ± 5 | 94 ± 2 | – | – | – | – | – | –
GEγγYQKALAγNLRγAEVKKNA(NH2) [con-T[M8A/+A10]] | 0 | 0 | 63 ± 4 | 67 ± 5 | – | – | – | – | – | –
GEγγYQKALγNLRγAEVKKNA(NH2) [con-T[M8A]] | – | – | – | – | – | – | 0 | 0 | 81 ± 5 | 73 ± 8
GEγγYQKGLγNLRγAEVKKNA(NH2) [con-T[M8G]] | 0 | 0 | 80 ± 5 | 84 ± 4 | – | – | – | – | – | –
GEγγYQKMAγNLRγAEVKKNA(NH2) [con-T[L9A]] | 91 ± 3 | 93 ± 2 | 92 ± 5 | 95 ± 2 | – | – | – | – | – | –
GEγγYQKNLγNLRγAEVKKNA(NH2) [con-T[M8N]] | – | – | – | – | – | – | 48 ± 6 | 56 ± 7 | 90 ± 4 | 82 ± 5
GEγγYQγMLγNLRγAEVKKNA(NH2) [con-T[K7γ]] | 82 ± 6 | 78 ± 4 | 86 ± 5 | 90 ± 2 | – | – | – | – | – | –
